For this assay, the system named is MV-4-11 cells. As to the kind of experiment: Gene expression microarray analysis (Affymetrix PrimeView) and GSEA. The assay is classed as cell-based, human. Also noted: RFU PODN (11730768_x_at) / Fold change /veh PODN (11730768_x_at) / RFU LINC00158 (11744669_a_at) / Fold change /veh LINC00158 (11744669_a_at) / RFU DUSP10 (11751237_a_at) / Fold change /veh DUSP10 (11751237_a_at) / RFU ID3 (11757404_x_at) / Fold change /veh ID3 (11757404_x_at) / RFU PLEKHG5 (11737974_s_at) / Fold change /veh PLEKHG5 (11737974_s_at) / RFU LRRC4B (11730491_at) / Fold change /veh LRRC4B (11730491_at) / RFU GIMAP4 (11747438_a_at) / Fold change /veh GIMAP4 (11747438_a_at) / RFU KRT8 (11758183_x_at) / Fold change /veh KRT8 (11758183_x_at) / RFU CNN1 (11734310_a_at) / Fold change /veh CNN1 (11734310_a_at) / RFU VPS37D (11726825_at) / Fold change /veh VPS37D (11726825_at) / RFU C10orf10 (11716522_x_at) / Fold change /veh C10orf10 (11716522_x_at) / RFU KIR2DL2 /// KIR2DL4 /// KIR2DL5A /// KIR2DL5B /// KIR2DS1 /// KIR2DS2 /// KIR2DS3 /// KIR2DS4 /// KIR3DL3 /// KIR3DL3 /// KIR3DS1 (11738374_at) / Fold change /veh KIR2DL2 /// KIR2DL4 /// KIR2DL5A /// KIR2DL5B /// KIR2DS1 /// KIR2DS2 /// KIR2DS3 /// KIR2DS4 /// KIR3DL3 /// KIR3DL3 /// KIR3DS1 (11738374_at) / RFU C1QL1 (11718748_at) / Fold change /veh C1QL1 (11718748_at) / RFU TMPRSS4 (11747572_a_at) / Fold change /veh TMPRSS4 (11747572_a_at) / RFU HAMP (11756126_x_at) / Fold change /veh HAMP (11756126_x_at) / RFU RNFT2 (11725882_a_at) / Fold change /veh RNFT2 (11725882_a_at) / RFU NR4A2 (11747474_a_at) / Fold change /veh NR4A2 (11747474_a_at) / RFU ABCC12 (11746883_a_at) / Fold change /veh ABCC12 (11746883_a_at) / RFU TMEM136 (11760407_x_at) / Fold change /veh TMEM136 (11760407_x_at) / RFU CLDN22 /// WWC2 (11732394_at) / Fold change /veh CLDN22 /// WWC2 (11732394_at) / RFU HLA-DPB1 (11760878_x_at) / Fold change /veh HLA-DPB1 (11760878_x_at) / RFU SPINT1 (11716480_a_at) / Fold change /veh SPINT1 (11716480_a_at) / RFU GAP43 (11754022_s_at) / Fold change /veh GAP43 (11754022_s_at) / RFU A4GNT (11735810_at) / Fold change /veh A4GNT (11735810_at) / RFU PRB3 (11715151_x_at) / Fold change /veh PRB3 (11715151_x_at) / RFU TUBB4B (11761932_at) / Fold change /veh TUBB4B (11761932_at) / RFU CAPN14 (11732068_a_at) / Fold change /veh CAPN14 (11732068_a_at) / RFU TMCC2 (11721928_a_at) / Fold change /veh TMCC2 (11721928_a_at) / RFU IRGQ (11745062_a_at) / Fold change /veh IRGQ (11745062_a_at) / RFU FAM174B (11720279_a_at) / Fold change /veh FAM174B (11720279_a_at) / RFU TMPRSS4 (11748680_a_at) / Fold change /veh TMPRSS4 (11748680_a_at) / RFU FAM212B (11763350_a_at) / Fold change /veh FAM212B (11763350_a_at) / RFU PLEKHG5 (11743358_a_at) / Fold change /veh PLEKHG5 (11743358_a_at) / RFU ZSCAN30 (11745921_a_at) / Fold change /veh ZSCAN30 (11745921_a_at) / RFU CMKLR1 (11741424_a_at) / Fold change /veh CMKLR1 (11741424_a_at) / RFU LOC101060620 /// MAPK8IP1 (11723275_at) / Fold change /veh LOC101060620 /// MAPK8IP1 (11723275_at) / RFU SPTSSB (11747773_x_at) / Fold change /veh SPTSSB (11747773_x_at) / RFU PRSS12 (11739890_at) / Fold change /veh PRSS12 (11739890_at) / RFU BIN1 (11741810_x_at) / Fold change /veh BIN1 (11741810_x_at) / RFU WNT11 (11732464_a_at) / Fold change /veh WNT11 (11732464_a_at) / RFU C10orf10 (11716521_a_at) / Fold change /veh C10orf10 (11716521_a_at) / RFU C5orf56 (11738089_at) / Fold change /veh C5orf56 (11738089_at) / RFU CYB561 (11721691_x_at) / Fold change /veh CYB561 (11721691_x_at) / RFU ANKRD19P (11752326_a_at) / Fold change /veh ANKRD19P (11752326_a_at) / RFU OR2T12 /// OR2T33 /// OR2T8 (11738714_s_at) / Fold change /veh OR2T12 /// OR2T33 /// OR2T8 (11738714_s_at) / RFU VCAN (11748164_a_at) / Fold change /veh VCAN (11748164_a_at) / RFU JSRP1 (11732532_at) / Fold change /veh JSRP1 (11732532_at) / RFU KRTAP10-11 (11738290_x_at) / Fold change /veh KRTAP10-11 (11738290_x_at) / RFU MYO3A (11730013_a_at) / Fold change /veh MYO3A (11730013_a_at) / RFU EBF3 (11725865_a_at) / Fold change /veh EBF3 (11725865_a_at) / RFU CAMK2N1 (11719241_x_at) / Fold change /veh CAMK2N1 (11719241_x_at) / RFU C5orf56 (11738088_a_at) / Fold change /veh C5orf56 (11738088_a_at) / RFU OLFML3 (11715873_a_at) / Fold change /veh OLFML3 (11715873_a_at) / RFU LOC100653217 /// NTM (11731650_a_at) / Fold change /veh LOC100653217 /// NTM (11731650_a_at) / RFU MAPK11 (11762145_a_at) / Fold change /veh MAPK11 (11762145_a_at) / RFU FIZ1 (11724087_x_at) / Fold change /veh FIZ1 (11724087_x_at) / RFU OASL (11726364_x_at) / Fold change /veh OASL (11726364_x_at) / RFU SOX15 (11748057_x_at) / Fold change /veh SOX15 (11748057_x_at) / RFU CD79A (11719716_a_at) / Fold change /veh CD79A (11719716_a_at) / RFU HIST1H1D (11736915_at) / Fold change /veh HIST1H1D (11736915_at) / RFU CASKIN2 (11723855_a_at) / Fold change /veh CASKIN2 (11723855_a_at) / RFU LOC730098 (11760151_x_at) / Fold change /veh LOC730098 (11760151_x_at) / RFU OR4N2 (11742367_at) / Fold change /veh OR4N2 (11742367_at) / RFU PRRT2 (11749266_a_at) / Fold change /veh PRRT2 (11749266_a_at) / RFU SNX32 (11753110_a_at) / Fold change /veh SNX32 (11753110_a_at) / RFU CDHR5 (11726645_a_at) / Fold change /veh CDHR5 (11726645_a_at) / RFU RCAN1 (11760418_a_at) / Fold change /veh RCAN1 (11760418_a_at) / RFU FAM167A (11723789_a_at) / Fold change /veh FAM167A (11723789_a_at) / RFU FAM26E (11764081_at) / Fold change /veh FAM26E (11764081_at) / RFU ISYNA1 (11749810_s_at) / Fold change /veh ISYNA1 (11749810_s_at) / RFU ACY1 (11761880_at) / Fold change /veh ACY1 (11761880_at) / RFU 11764098_at / Fold change /veh 11764098_at / RFU SAMD14 (11745864_x_at) / Fold change /veh SAMD14 (11745864_x_at) / RFU NPB (11741838_a_at) / Fold change /veh NPB (11741838_a_at) / RFU TMPRSS6 (11731388_a_at) / Fold change /veh TMPRSS6 (11731388_a_at) / RFU KRTAP10-2 (11738614_at) / Fold change /veh KRTAP10-2 (11738614_at) / RFU ARHGAP8 /// PRR5-ARHGAP8 (11727945_x_at) / Fold change /veh ARHGAP8 /// PRR5-ARHGAP8 (11727945_x_at) / RFU KRTAP5-7 /// NADSYN1 (11734609_at) / Fold change /veh KRTAP5-7 /// NADSYN1 (11734609_at) / RFU RASL12 (11751679_a_at) / Fold change /veh RASL12 (11751679_a_at) / RFU CDKN2B (11736163_a_at) / Fold change /veh CDKN2B (11736163_a_at) / RFU PRF1 (11729649_at) / Fold change /veh PRF1 (11729649_at) / RFU, ZNF638 /// ZNF638-IT1 / Fold change vs veh, ZNF638 /// ZNF638-IT1 / RFU, PANK3 / Fold change vs veh, PANK3 / RFU, SH3YL1 / Fold change vs veh, SH3YL1 / RFU, ZEB2 / Fold change vs veh, ZEB2 / RFU, NRIP1 / Fold change vs veh, NRIP1 / RFU, PTTG1IP / Fold change vs veh, PTTG1IP / RFU, CAPN2 / Fold change vs veh, CAPN2 / RFU, MED14 / Fold change vs veh, MED14 / RFU, SNORA58 / Fold change vs veh, SNORA58 / RFU, C1orf63 / Fold change vs veh, C1orf63 / RFU, LRRFIP1 / Fold change vs veh, LRRFIP1 / RFU, NDUFAF7 / Fold change vs veh, NDUFAF7 / RFU, SLC12A2 / Fold change vs veh, SLC12A2 / RFU, IBTK / Fold change vs veh, IBTK / RFU, ESF1 / Fold change vs veh, ESF1 / Fold change vs veh, TMEM50B / RFU, TAOK1 / Fold change vs veh, TAOK1 / RFU, ACBD3 / Fold change vs veh, ACBD3 / RFU, TMA16 / Fold change vs veh, TMA16 / RFU, RWDD3 / Fold change vs veh, RWDD3 / RFU, BCAT1 / Fold change vs veh, BCAT1 / RFU, EDEM3 / Fold change vs veh, EDEM3 / RFU, TMEM33 / Fold change vs veh, TMEM33 / RFU, WDR75 / Fold change vs veh, WDR75 / RFU, AHCTF1 / Fold change vs veh, AHCTF1 / RFU, TFRC / Fold change vs veh, TFRC / RFU, ZDHHC17 / Fold change vs veh, ZDHHC17 / RFU, NOM1 / Fold change vs veh, NOM1 / RFU, ARL8B / Fold change vs veh, ARL8B / RFU, ZBTB11 / Fold change vs veh, ZBTB11 / RFU, TAMM41 / Fold change vs veh, TAMM41 / RFU, KIAA1704 /// LOC100996395 / Fold change vs veh, KIAA1704 /// LOC100996395 / RFU, ING1 / Fold change vs veh, ING1 / RFU, TRMT61B / Fold change vs veh, TRMT61B / RFU, FUBP3 / Fold change vs veh, FUBP3 / RFU, TP53 / Fold change vs veh, TP53 / RFU, TNKS2 / Fold change vs veh, TNKS2 / RFU, ZFP14 / Fold change vs veh, ZFP14 / RFU, ACTR2 / Fold change vs veh, ACTR2 / RFU, PPP3R1 / Fold change vs veh, PPP3R1 / RFU, PIK3R1 / Fold change vs veh, PIK3R1 / RFU, HNRNPA1 / Fold change vs veh, HNRNPA1 / RFU, RNF170 / Fold change vs veh, RNF170 / RFU, ZNF28 / Fold change vs veh, ZNF28 / RFU, RNGTT / Fold change vs veh, RNGTT / RFU, OGT / Fold change vs veh, OGT / RFU, BRD1 / Fold change vs veh, BRD1 / RFU, MARS / Fold change vs veh, MARS / RFU, ZNF655 / Fold change vs veh, ZNF655 / RFU, FAHD1 / Fold change vs veh, FAHD1 / RFU, BDP1 / Fold change vs veh, BDP1 / RFU, LRRCC1 / Fold change vs veh, LRRCC1 / RFU, ARID1A / Fold change vs veh, ARID1A / RFU, ZNF146 / Fold change vs veh, ZNF146 / RFU, ZNF330 / Fold change vs veh, ZNF330 / RFU, GPN3 / Fold change vs veh, GPN3 / RFU, C9orf123 / Fold change vs veh, C9orf123 / RFU, N4BP2L2 / Fold change vs veh, N4BP2L2 / RFU, ARFIP1 / Fold change vs veh, ARFIP1 / RFU, FAM179B / Fold change vs veh, FAM179B / RFU, BCL10 / Fold change vs veh, BCL10 / RFU, UHRF1BP1L / Fold change vs veh, UHRF1BP1L / RFU, BET1 / Fold change vs veh, BET1 / RFU, CNOT2 / Fold change vs veh, CNOT2 / RFU, ZNF268 / Fold change vs veh, ZNF268 / Fold change vs veh, ZNF507 / RFU, DGCR2 / Fold change vs veh, DGCR2 / RFU, WDSUB1 / Fold change vs veh, WDSUB1 / Fold change vs veh, HSP90B1 /// MIR3652 / RFU, ADSS / Fold change vs veh, ADSS / RFU, GK / Fold change vs veh, GK / RFU, ZNF148 / Fold change vs veh, ZNF148 / RFU, TAF9 / Fold change vs veh, TAF9 / RFU, SLC1A5 / Fold change vs veh, SLC1A5 / RFU, SLMO2 / Fold change vs veh, SLMO2 / RFU, ABCC4 / Fold change vs veh, ABCC4 / RFU, LOC101060439 /// RAP1B / Fold change vs veh, LOC101060439 /// RAP1B / RFU, RFX7 / Fold change vs veh, RFX7 / RFU, GTPBP10 / Fold change vs veh, GTPBP10 / RFU, CNEP1R1 / Fold change vs veh, CNEP1R1 / RFU, BIVM-ERCC5 /// ERCC5 / Fold change vs veh, BIVM-ERCC5 /// ERCC5 / RFU, ILF3 / Fold change vs veh, ILF3 / RFU 11762660_at / Fold change /veh 11762660_at / RFU VCAN (11757783_s_at) / Fold change /veh VCAN (11757783_s_at) / RFU DDX43 (11728927_at) / Fold change /veh DDX43 (11728927_at) / RFU KRT8 (11758188_x_at) / Fold change /veh KRT8 (11758188_x_at) / RFU NKD1 (11759106_at) / Fold change /veh NKD1 (11759106_at) / RFU SRD5A1 (11742802_a_at) / Fold change /veh SRD5A1 (11742802_a_at) / RFU TPSAB1 /// TPSB2 (11721975_s_at) / Fold change /veh TPSAB1 /// TPSB2 (11721975_s_at) / RFU GSTM3 (11746129_a_at) / Fold change /veh GSTM3 (11746129_a_at) / RFU IL23R (11737362_x_at) / Fold change /veh IL23R (11737362_x_at) / RFU TMEM51 (11727254_a_at) / Fold change /veh TMEM51 (11727254_a_at) / RFU PIWIL2 (11732686_x_at) / Fold change /veh PIWIL2 (11732686_x_at) / RFU ORM1 (11744905_x_at) / Fold change /veh ORM1 (11744905_x_at) / RFU CCDC152 (11743942_at) / Fold change /veh CCDC152 (11743942_at) / RFU ECM1 (11717891_a_at) / Fold change /veh ECM1 (11717891_a_at) / RFU IL23R (11748794_a_at) / Fold change /veh IL23R (11748794_a_at) / RFU TNFAIP8L3 (11732012_x_at) / Fold change /veh TNFAIP8L3 (11732012_x_at) / RFU MBOAT4 (11741988_at) / Fold change /veh MBOAT4 (11741988_at) / RFU 11764193_at / Fold change /veh 11764193_at / RFU TMEM53 (11763286_at) / Fold change /veh TMEM53 (11763286_at) / RFU MAGEB2 (11727129_at) / Fold change /veh MAGEB2 (11727129_at) / RFU TMEM200A (11744735_a_at) / Fold change /veh TMEM200A (11744735_a_at) / RFU CCDC152 (11751479_a_at) / Fold change /veh CCDC152 (11751479_a_at) / RFU FAM211A (11726209_a_at) / Fold change /veh FAM211A (11726209_a_at) / RFU RGS16 (11746705_a_at) / Fold change /veh RGS16 (11746705_a_at) / RFU VCAN (11755009_s_at) / Fold change /veh VCAN (11755009_s_at) / RFU RHOB (11743442_s_at) / Fold change /veh RHOB (11743442_s_at) / RFU RGS16 (11720943_a_at) / Fold change /veh RGS16 (11720943_a_at) / RFU RGS16 (11720944_at) / Fold change /veh RGS16 (11720944_at) / RFU, VPS4B / Fold change vs veh, VPS4B / RFU, CREB1 / Fold change vs veh, CREB1 / RFU, DNAJC13 / Fold change vs veh, DNAJC13 / RFU, GNAQ / Fold change vs veh, GNAQ / RFU, CDK5R1 / Fold change vs veh, CDK5R1 / RFU, ZRANB3 / Fold change vs veh, ZRANB3 / RFU, CUL4A / Fold change vs veh, CUL4A / RFU, CCNY / Fold change vs veh, CCNY / RFU, UFL1 / Fold change vs veh, UFL1 / RFU, COG3 / Fold change vs veh, COG3 / RFU, DIAPH2 / Fold change vs veh, DIAPH2 / RFU, SKA2 / Fold change vs veh, SKA2 / RFU, AFF3 / Fold change vs veh, AFF3 / RFU, LMF1 / Fold change vs veh, LMF1 / RFU, IPO11 / Fold change vs veh, IPO11 / RFU, DFFB / Fold change vs veh, DFFB / RFU, FOXP1 / Fold change vs veh, FOXP1 / RFU, CARD8 / Fold change vs veh, CARD8 / RFU, STRN3 / Fold change vs veh, STRN3 / RFU, ADK / Fold change vs veh, ADK / RFU, RASSF2 / Fold change vs veh, RASSF2 / RFU, WIPF1 / Fold change vs veh, WIPF1 / RFU, LARP1B / Fold change vs veh, LARP1B / RFU, RASA1 / Fold change vs veh, RASA1 / RFU, RB1 / Fold change vs veh, RB1 / RFU, PPFIA1 / Fold change vs veh, PPFIA1 / RFU, MAT2A / Fold change vs veh, MAT2A / RFU, CCT5 / Fold change vs veh, CCT5 / RFU, WDR92 / Fold change vs veh, WDR92 / RFU, CUX1 / Fold change vs veh, CUX1 / RFU, TTC7A / Fold change vs veh, TTC7A / RFU, TMEM135 / Fold change vs veh, TMEM135 / RFU, DEPTOR / Fold change vs veh, DEPTOR / RFU, CPM / Fold change vs veh, CPM / RFU, DNAJB6 / Fold change vs veh, DNAJB6 / RFU, CACNA2D3 / Fold change vs veh, CACNA2D3 / RFU, DTX4 / Fold change vs veh, DTX4 / RFU, TFCP2 / Fold change vs veh, TFCP2 / RFU, GMCL1 /// GMCL1P1 / Fold change vs veh, GMCL1 /// GMCL1P1 / RFU, AEBP2 / Fold change vs veh, AEBP2 / RFU, SNHG1 /// SNORD22 /// SNORD25 /// SNORD26 /// SNORD27 /// SNORD28 /// SNORD29 /// SNORD31 / Fold change vs veh, SNHG1 /// SNORD22 /// SNORD25 /// SNORD26 /// SNORD27 /// SNORD28 /// SNORD29 /// SNORD31 / Fold change (Aza/veh), C12orf56 (ProbeSet 11735607_a_at) / Fold change (ACY-1035/veh), C12orf56 (ProbeSet 11735607_a_at) / Fold change (Aza/veh), FGFR1OP (ProbeSet 11751329_s_at) / Fold change (ACY-1035/veh), FGFR1OP (ProbeSet 11751329_s_at) / Fold change (Aza/veh), VPS36 (ProbeSet 11739960_a_at) / Fold change (ACY-1035/veh), VPS36 (ProbeSet 11739960_a_at) / RFU SYPL1 (11715823_x_at) / Fold change /veh SYPL1 (11715823_x_at) / RFU IGFBP7 (11715501_s_at) / Fold change /veh IGFBP7 (11715501_s_at) / RFU REEP3 (11722064_at) / Fold change /veh REEP3 (11722064_at) / RFU IGLL1 (11728026_x_at) / Fold change /veh IGLL1 (11728026_x_at): dose or concentration left out as unconfirmed. To be noted: MV-4-11 cells, 48 hours.

Experimental findings from PMC5218480 (PLoS ONE, 2017) are described below.

The structures appear in SMILES notation.

Regarding `Nc1ccc(-c2cccs2)cc1NC(=O)c1ccc2c(c1)cc(C1CC1)n2CCN1CCOCC1` [ACY-1035], the “Fold change /veh ABCC12 (11746883_a_at)” value was 1.17.
